This is an account of results in the NIST ThermoML archive (doi:10.1021/je200637v).

This data set can be described thus: activity coefficient (dimensionless); of the first substance listed, at infinite dilution; xn = mol fraction of the nth substance listed. Particulars: Liquid, Chromatography, x1 = 0.

SMILES strings stand for the structures. ± gives the expanded uncertainty stated by the source.

As for `CC(C)OC(C)C` [diisopropyl ether] + CCCCCCCCCC[N+](C)(C)C.O=S(=O)([N-]S(=O)(=O)C(F)(F)F)C(F)(F)F, the activity coefficient reads like this: (322.85 K) 2.19 ± 0.1; (332.65 K) 2.32 ± 0.11; (343.15 K) 2.3 ± 0.1.
On the same counts, the results for `CCCCCC` [hexane] + CCCCCCCC[N+](CCCCCCCC)(CCCCCCCC)CCCCCCCC.O=S(=O)([N-]S(=O)(=O)C(F)(F)F)C(F)(F)F are 1.3 ± 0.04, 1.29 ± 0.04 and 1.28 ± 0.04.
On the same counts, the results for `c1ccsc1` [thiophene] + CCCCCCCCCC[N+](C)(C)C.O=S(=O)([N-]S(=O)(=O)C(F)(F)F)C(F)(F)F are 0.65 ± 0.03, 0.7 ± 0.03 and 0.68 ± 0.03.
Take `ClC(Cl)(Cl)Cl` [tetrachloromethane] + CCCC[N+](C)(CCCC)CCCC.O=S(=O)([N-]S(=O)(=O)C(F)(F)F)C(F)(F)F: the activity coefficient amounted to 2.11 ± 0.1 (322.85 K), 2.11 ± 0.1 (332.65 K) and 2.07 ± 0.09 (343.15 K).
As for `C#CCCCCC` [1-heptyne] + CCCC[N+](C)(CCCC)CCCC.O=S(=O)([N-]S(=O)(=O)C(F)(F)F)C(F)(F)F, the activity coefficient worked out at 2.79 ± 0.13 (322.85 K), 2.89 ± 0.13 (332.65 K) and 2.85 ± 0.13 (343.15 K).
In the case of `C=CCCCC` [hex-1-ene] + CCCCCCCCCC[N+](C)(C)C.O=S(=O)([N-]S(=O)(=O)C(F)(F)F)C(F)(F)F, the activity coefficient worked out at 2.7 ± 0.12 (322.85 K), 2.86 ± 0.13 (332.65 K) and 2.76 ± 0.13 (343.15 K).
Regarding `Cc1cccc(C)c1` [1,3-dimethylbenzene] + CCCC[N+](C)(CCCC)CCCC.O=S(=O)([N-]S(=O)(=O)C(F)(F)F)C(F)(F)F, the activity coefficient by setting is: (322.85 K) 1.49 ± 0.06; (332.65 K) 1.56 ± 0.06; (343.15 K) 1.56 ± 0.06.
In the case of `CCCO` [propan-1-ol] + CCCC[N+](C)(CCCC)CCCC.O=S(=O)([N-]S(=O)(=O)C(F)(F)F)C(F)(F)F, the activity coefficient (322.85 K) was 1.78 ± 0.08, the activity coefficient (332.65 K) came out at 1.64 ± 0.07 and the activity coefficient (343.15 K) stood at 1.48 ± 0.06.
As to `CCO` [ethanol] + CCCCCCCCCC[N+](C)(C)C.O=S(=O)([N-]S(=O)(=O)C(F)(F)F)C(F)(F)F, the activity coefficient reads like this: (322.85 K) 1.29 ± 0.04; (332.65 K) 1.19 ± 0.04; (343.15 K) 1.07 ± 0.03.
On the same counts, the results for `C1CCCCC1` [cyclohexane] + CCCCCCCC[N+](CCCCCCCC)(CCCCCCCC)CCCCCCCC.O=S(=O)([N-]S(=O)(=O)C(F)(F)F)C(F)(F)F are 0.95 ± 0.03, 0.94 ± 0.03 and 0.92 ± 0.03.
On the same counts, the results for `CCC=O` [propanal] + CCCC[N+](C)(CCCC)CCCC.O=S(=O)([N-]S(=O)(=O)C(F)(F)F)C(F)(F)F are 0.49 ± 0.03, 0.49 ± 0.03 and 0.5 ± 0.03.
The like results for `CCCCCCCCCCC` [undecane] + CCCCCCCC[N+](C)(C)C.O=S(=O)([N-]S(=O)(=O)C(F)(F)F)C(F)(F)F were, in that order, 25.8 ± 1.2, 23.7 ± 1.1 and 21.1 ± 0.98.
Turning to `CCC(C)CC` [3-methylpentane] + CCCCCCCC[N+](C)(C)C.O=S(=O)([N-]S(=O)(=O)C(F)(F)F)C(F)(F)F, the activity coefficient is 5.62 ± 0.26 (322.85 K), 5.24 ± 0.24 (332.65 K) and 4.87 ± 0.22 (343.15 K).
The like results for `C1CCCCC1` [cyclohexane] + CCCCCCCC[N+](C)(C)C.O=S(=O)([N-]S(=O)(=O)C(F)(F)F)C(F)(F)F were, in that order, 4.08 ± 0.19, 3.84 ± 0.17 and 3.57 ± 0.16.
The like results for `CCCCCCCCCCCC` [dodecane] + CCCCCCCC[N+](C)(C)C.O=S(=O)([N-]S(=O)(=O)C(F)(F)F)C(F)(F)F were, in that order, 33.1 ± 1.5, 30.5 ± 1.4 and 27.1 ± 1.3.
Turning to `CCO` [ethanol] + CCCCCCCC[N+](C)(C)C.O=S(=O)([N-]S(=O)(=O)C(F)(F)F)C(F)(F)F, the activity coefficient (322.85 K) was 1.47 ± 0.06, the activity coefficient (332.65 K) came out at 1.32 ± 0.05 and the activity coefficient (343.15 K) is 1.19 ± 0.04.
The like results for `c1ccsc1` [thiophene] + CCCC[N+](C)(CCCC)CCCC.O=S(=O)([N-]S(=O)(=O)C(F)(F)F)C(F)(F)F were, in that order, 0.86 ± 0.03, 0.88 ± 0.03 and 0.87 ± 0.03.
On the same counts, the results for `CCCCO` [butan-1-ol] + CCCCCCCCCC[N+](C)(C)C.O=S(=O)([N-]S(=O)(=O)C(F)(F)F)C(F)(F)F are 1.7 ± 0.07, 1.55 ± 0.06 and 1.38 ± 0.05.
On the same counts, the results for `C#CCCCCC` [1-heptyne] + CCCCCCCC[N+](C)(C)C.O=S(=O)([N-]S(=O)(=O)C(F)(F)F)C(F)(F)F are 2.48 ± 0.11, 2.46 ± 0.11 and 2.39 ± 0.11.
In the case of `Cc1cccc(C)c1` [1,3-dimethylbenzene] + CCCCCCCCCC[N+](C)(C)C.O=S(=O)([N-]S(=O)(=O)C(F)(F)F)C(F)(F)F, the activity coefficient runs as follows: (322.85 K) 1.11 ± 0.03; (332.65 K) 1.14 ± 0.03; (343.15 K) 1.11 ± 0.03.
Take `ClC(Cl)Cl` [trichloromethane] + CCCCCCCC[N+](CCCCCCCC)(CCCCCCCC)CCCCCCCC.O=S(=O)([N-]S(=O)(=O)C(F)(F)F)C(F)(F)F: the activity coefficient reads like this: (322.85 K) 0.34 ± 0.04; (332.65 K) 0.35 ± 0.04; (343.15 K) 0.36 ± 0.04.
On the same counts, the results for `CCC(C)=O` [butanone] + CCCC[N+](C)(CCCC)CCCC.O=S(=O)([N-]S(=O)(=O)C(F)(F)F)C(F)(F)F are 0.4 ± 0.03, 0.38 ± 0.03 and 0.35 ± 0.04.
On the same counts, the results for `CCC(=O)CC` [pentan-3-one] + CCCCCCCC[N+](C)(C)C.O=S(=O)([N-]S(=O)(=O)C(F)(F)F)C(F)(F)F are 0.52 ± 0.03, 0.53 ± 0.03 and 0.54 ± 0.03.
The like results for `C=O` [methanal] + CCCC[N+](C)(CCCC)CCCC.O=S(=O)([N-]S(=O)(=O)C(F)(F)F)C(F)(F)F were, in that order, 0.11 ± 0.04, 0.12 ± 0.04 and 0.13 ± 0.04.
Turning to `CC#N` [acetonitrile] + CCCCCCCC[N+](C)(C)C.O=S(=O)([N-]S(=O)(=O)C(F)(F)F)C(F)(F)F, the activity coefficient (322.85 K) is 0.48 ± 0.03, the activity coefficient (332.65 K) was determined as 0.46 ± 0.03 and the activity coefficient (343.15 K) was 0.44 ± 0.03.
On the same counts, the results for `CCCCCCC` [heptane] + CCCCCCCCCC[N+](C)(C)C.O=S(=O)([N-]S(=O)(=O)C(F)(F)F)C(F)(F)F are 5.26 ± 0.24, 5.14 ± 0.23 and 4.92 ± 0.22.
Take `CCCCCCC` [heptane] + CCCCCCCC[N+](CCCCCCCC)(CCCCCCCC)CCCCCCCC.O=S(=O)([N-]S(=O)(=O)C(F)(F)F)C(F)(F)F: the activity coefficient is, setting by setting: (322.85 K) 1.5 ± 0.06; (332.65 K) 1.48 ± 0.06; (343.15 K) 1.47 ± 0.06.
Regarding `c1ccncc1` [pyridine] + CCCCCCCC[N+](C)(C)C.O=S(=O)([N-]S(=O)(=O)C(F)(F)F)C(F)(F)F, the activity coefficient reads like this: (322.85 K) 0.45 ± 0.03; (332.65 K) 0.44 ± 0.03; (343.15 K) 0.43 ± 0.03.
For `CCC(C)CC` [3-methylpentane] + CCCCCCCCCC[N+](C)(C)C.O=S(=O)([N-]S(=O)(=O)C(F)(F)F)C(F)(F)F, the activity coefficient (322.85 K) was determined as 3.88 ± 0.18, the activity coefficient (332.65 K) was 3.78 ± 0.17 and the activity coefficient (343.15 K) is 3.62 ± 0.16.
The like results for `CC(C)O` [propan-2-ol] + CCCCCCCCCC[N+](C)(C)C.O=S(=O)([N-]S(=O)(=O)C(F)(F)F)C(F)(F)F were, in that order, 1.38 ± 0.05, 1.28 ± 0.04 and 1.15 ± 0.04.
As to `C[N+](=O)[O-]` [nitromethane] + CCCCCCCCCC[N+](C)(C)C.O=S(=O)([N-]S(=O)(=O)C(F)(F)F)C(F)(F)F, the activity coefficient is, setting by setting: (322.85 K) 0.56 ± 0.03; (332.65 K) 0.58 ± 0.03; (343.15 K) 0.55 ± 0.03.
As for `CCCCCCC` [heptane] + CCCCCCCC[N+](C)(C)C.O=S(=O)([N-]S(=O)(=O)C(F)(F)F)C(F)(F)F, the activity coefficient (322.85 K) was determined as 8.27 ± 0.38, the activity coefficient (332.65 K) was determined as 7.81 ± 0.36 and the activity coefficient (343.15 K) was 7.18 ± 0.33.
On the same counts, the results for `C=CCCCC` [hex-1-ene] + CCCCCCCC[N+](CCCCCCCC)(CCCCCCCC)CCCCCCCC.O=S(=O)([N-]S(=O)(=O)C(F)(F)F)C(F)(F)F are 1.05 ± 0.03, 1.05 ± 0.03 and 1.04 ± 0.03.
The like results for `CCCCCCCCC` [nonane] + CCCCCCCC[N+](C)(C)C.O=S(=O)([N-]S(=O)(=O)C(F)(F)F)C(F)(F)F were, in that order, 15.9 ± 0.74, 14.8 ± 0.68 and 13.4 ± 0.62.
The like results for `CC(C)CC(C)(C)C` [2,2,4-trimethylpentane] + CCCCCCCC[N+](CCCCCCCC)(CCCCCCCC)CCCCCCCC.O=S(=O)([N-]S(=O)(=O)C(F)(F)F)C(F)(F)F were, in that order, 1.52 ± 0.06, 1.51 ± 0.06 and 1.5 ± 0.06.
Take `CCC(=O)CC` [pentan-3-one] + CCCC[N+](C)(CCCC)CCCC.O=S(=O)([N-]S(=O)(=O)C(F)(F)F)C(F)(F)F: the activity coefficient by setting is: (322.85 K) 0.5 ± 0.03; (332.65 K) 0.54 ± 0.03; (343.15 K) 0.56 ± 0.03.
The like results for `CCCC(C)=O` [pentan-2-one] + CCCC[N+](C)(CCCC)CCCC.O=S(=O)([N-]S(=O)(=O)C(F)(F)F)C(F)(F)F were, in that order, 0.55 ± 0.03, 0.58 ± 0.03 and 0.59 ± 0.03.
On the same counts, the results for `CCCO` [propan-1-ol] + CCCCCCCC[N+](C)(C)C.O=S(=O)([N-]S(=O)(=O)C(F)(F)F)C(F)(F)F are 1.7 ± 0.07, 1.55 ± 0.06 and 1.37 ± 0.05.
